Results taken from patent US9227956B2 (Pfizer Inc., priority 2013, dated 2016).
pIC50: −log10 of the molar value.

Assays:
human PCSK9 [1] = experiment: Cell Free PCSK9 Assay (PCSK9-luciferase RNA translated in HeLa cell lysate); assay type: biochemical; conditions: 30° C. for 45 minutes, luciferase readout, top concentration 100 μM
PCSK9 [2] = experiment: PCSK9 lowering in sandwich culture human hepatocytes (SCHH); assay type: cell-based; conditions: maximum response versus vehicle; at 8 h at 100 μM
human PCSK9 [3] = experiment: PCSK9 AlphaLISA assay, PCSK9 lowering in WT7 cells; conditions: WT7 cells (Huh7 stably over-expressing human PCSK9); secreted PCSK9 by AlphaLISA; overnight incubation (16-24 h); top concentration 20 μM; read-out: Cell Based PCSK9 IC50
PCSK9 [4] = experiment: Global Proteomic Assay (SILAC), PCSK9 protein expression in conditioned media; assay type: cell-based, human; conditions: Huh7 cells
Method: At the end of the indicated time points, media was removed and protease/phosphatase inhibitors added prior to freezing at −80° C. Cell layers were rinsed with PBS before adding cell dissociation buffer to detach the cells, cells were collected by rinsing with PBS and spun at 1000 rpm for 5 minutes. The cell pellet was resuspended in PBS for washing, spun at 1000 rpm for 5 minutes and the supernatant aspirated. The cell layer was then frozen at −80° C. and both the media and cell pellet were subjected to proteomic analysis.
(§1) For proteomic analysis of secreted proteins, equal volume of the conditioned media from light, medium, and heavy cells was mixed, followed by depletion of bovine serum albumin by anti-BSA agarose beads. The resulting proteins were subsequently concentrated using 3 KDa MWCO spin columns, reduced with dithiothreitol and alkylated with iodoacetamide.
The proteins derived from conditioned media and cell pellets were subsequently fractionated by SDS-PAGE. […]
(§2) The peptide mixtures were reconstituted in 0.1% formic acid. […] Peptide identification and relative protein quantification were carried out by searching the mass spectra against the human IPI database using Mascot search engine on Proteome Discoverer 1.3. […] Changes in protein expression upon compound treatment were calculated from the relative intensity of isotope-labeled and unlabeled peptides derived from that protein.

Huh7 cells = experiment: Global Proteomic Assay (SILAC), non-PCSK9 proteins with decreased expression; assay type: cell-based, human
Method: Cell layers were rinsed with PBS before adding cell dissociation buffer to detach the cells, cells were collected by rinsing with PBS and spun at 1000 rpm for 5 minutes. The cell pellet was resuspended in PBS for washing, spun at 1000 rpm for 5 minutes and the supernatant aspirated. The cell layer was then frozen at −80° C. and both the media and cell pellet were subjected to proteomic analysis.
as §1
For the analysis of cellular proteins, cell pellets were lysed in SDS-PAGE loading buffer in the presence of protease/phosphatase inhibitor cocktails. Cell lysates were centrifuged at 12000×g at 4° C. for 10 min. The resulting supernatants were collected, and protein concentrations were measured by BCA assay. Equal amount proteins in the light, medium, and heavy cell lysates were combined, reduced with dithiothreitol and alkylated with iodoacetamide.
The proteins derived from conditioned media and cell pellets were subsequently fractionated by SDS-PAGE. The gels were stained with Coomassie blue. After destaining, the gels were cut into 12-15 bands. Proteins were in-gel digested by trypsin overnight, after which peptides were extracted from the gels with CH3CN:1% formic acid (1:1, v/v). The resulting peptide mixtures were desalted with C18 Stage-Tips, dried in speedvac and stored at −20° C. until further analysis.
as §2

PCSK9 [5] = experiment: PCSK9 lowering in sandwich culture human hepatocytes (SCHH); assay type: cell-based; conditions: maximum response versus vehicle; at 8 h at 30 μM

SMILES | pIC50 (human PCSK9 [1]) | Sandwich Culture Hepatocyte (SCHH) PCSK9 Lowering (PCSK9 [2]) | pIC50 (human PCSK9 [3]) | PCSK9 in conditioned media relative to vehicle (PCSK9 [4]; 10 μM, 4 and 16 h post-treatment) | additional proteins in conditioned media with significant decrease in expression (Huh7 cells; 10 μM, 4 and 16 h, two proteins (Apolipoprotein A2, Cadherin 1) of approx. 1500) | Sandwich Culture Hepatocyte (SCHH) PCSK9 Lowering (PCSK9 [5]) | decrease of PCSK9 protein expression in the conditioned media (PCSK9 [4]; 16 hours of treatment, 0.3 μM) | cellular proteins significantly decreased (Huh7 cells; 2 proteins (Apolipoprotein C3, Cadherin 1) of greater than 3000 cellular proteins) | additional proteins with significant reduction in expression (media and cells) (Huh7 cells; 4 of 4083 proteins)
Cn1ncc(-c2ccc(C(=O)N(c3ncccc3Cl)[C@@H]3CCCNC3)cc2)c1C(=O)O [Example 7, 4-(4-{(3-chloropyridin-2-yl)[(3R)-piperidin-3-yl]carbamoyl}phenyl)-1-methyl-1H-pyrazole-5-carboxylic acid] | 4.74 | 26% at 8 h at 100 μM | < 4.70 | – | – | – | – | – | –
CCOC(=O)O[C@H](C)OC(=O)c1c(-c2ccc(C(=O)N(c3ncccc3Cl)[C@@H]3CCCNC3)cc2)cnn1C [Example 15b, (1R)-1-[(ethoxycarbonyl)oxy]ethyl 4-(4-{(3-chloropyridin-2-yl)[(3R)-piperidin-3-yl]carbamoyl}phenyl)-1-methyl-1H-pyrazole-5-carboxylate] | 5.30 | – | 4.97 | significantly reduced | approx. 0.13% | 58% at 8 h at 30 μM | – | – | –
O=C(c1ccc(-n2nnc3cccnc32)cc1)N(c1ncccc1Cl)[C@@H]1CCCNC1 [Example 16, N-(3-chloropyridin-2-yl)-N-[(3R)-piperidin-3-yl]-4-(3H-[1,2,3]triazolo[4,5-b]pyridin-3-yl)benzamide] | 6.28 | – | – | – | – | 87% at 8 h at 30 μM | 2 fold | 0.067% | 0.098%
Cc1cccnc1N(C(=O)c1ccc(-c2cnn(C)c2-c2nn[nH]n2)cc1)[C@@H]1CCCNC1 [Example 17, N-(3-methylpyridin-2-yl)-4-[1-methyl-5-(2H-tetrazol-5-yl)-1H-pyrazol-4-yl]-N-[(3R)-piperidin-3-yl]benzamide] | 5.52 | 63% at 8 h at 100 uM | < 4.70 | – | – | – | – | – | –
Cc1cccnc1N(C(=O)c1ccc(-c2cnn(C)c2-c2noc(=O)[nH]2)cc1)[C@@H]1CCCNC1 [Example 18, 4-[1-methyl-5-(5-oxo-4,5-dihydro-1,2,4-oxadiazol-3-yl)-1H-pyrazol-4-yl]-N-(3-methylpyridin-2-yl)-N-[(3R)-piperidin-3-yl]benzamide] | 5.25 | 15% at 8 h at 100 uM | < 4.70 | – | – | – | – | – | –
